{
  "source": "patent US10239882B2",
  "about": "“Substituted 5-methyl-[1,2,4]triazolo[1,5-a]pyrimidin-2-amine compounds as PDE2 inhibitors” (DART NEUROSCIENCE (CAYMAN) LTD., priority 2014, dated 2019)",
  "data": [
    {"biological_target": "FLAG-tagged PDE2A1 (amino acids 2-941) (Homo sapiens (Human), UniProt O00408)", "sequence (O00408 2-941)": "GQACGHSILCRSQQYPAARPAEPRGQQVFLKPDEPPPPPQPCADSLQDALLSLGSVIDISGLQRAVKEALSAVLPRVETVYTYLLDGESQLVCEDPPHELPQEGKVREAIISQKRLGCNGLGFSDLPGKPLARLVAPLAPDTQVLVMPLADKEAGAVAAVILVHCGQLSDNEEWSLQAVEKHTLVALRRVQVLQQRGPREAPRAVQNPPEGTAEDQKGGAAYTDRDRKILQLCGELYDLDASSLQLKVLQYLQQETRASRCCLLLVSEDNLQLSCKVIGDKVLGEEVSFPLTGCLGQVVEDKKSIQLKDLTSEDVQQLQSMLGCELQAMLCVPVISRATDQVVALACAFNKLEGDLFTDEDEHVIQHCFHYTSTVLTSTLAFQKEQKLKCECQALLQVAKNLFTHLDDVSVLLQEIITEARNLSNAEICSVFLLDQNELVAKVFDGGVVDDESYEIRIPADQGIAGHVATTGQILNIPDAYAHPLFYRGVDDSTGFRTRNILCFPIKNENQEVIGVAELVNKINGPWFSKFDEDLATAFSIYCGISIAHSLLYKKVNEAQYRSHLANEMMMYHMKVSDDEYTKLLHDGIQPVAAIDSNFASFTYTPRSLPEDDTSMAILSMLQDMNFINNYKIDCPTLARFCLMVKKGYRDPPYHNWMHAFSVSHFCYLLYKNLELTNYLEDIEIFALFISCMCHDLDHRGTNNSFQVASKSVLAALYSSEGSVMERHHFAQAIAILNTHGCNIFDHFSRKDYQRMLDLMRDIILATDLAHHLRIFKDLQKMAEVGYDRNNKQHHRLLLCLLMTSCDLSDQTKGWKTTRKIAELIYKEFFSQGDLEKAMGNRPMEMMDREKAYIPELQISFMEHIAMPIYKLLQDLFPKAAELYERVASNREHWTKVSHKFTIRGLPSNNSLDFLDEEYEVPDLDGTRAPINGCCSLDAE", "test": "IMAP TR-FRET PDE2A enzymatic assay", "assay_type": "biochemical", "settings": "200 nM FAM-cAMP substrate, 11-point half-log dose-response", "text": "(§1) An IMAP TR-FRET-based phosphodiesterase assay was developed using the PDE2A isoform. IMAP technology is based on high-affinity binding of phosphate by immobilized metal (MIII) coordination complexes on nanoparticles. The IMAP “binding reagent” recognizes phosphate groups on AMP or GMP generated from cAMP or cGMP in a PDE reaction. Cyclic nucleotides that carry a phosphodiester bond and not a free phosphate are not recognized by the binding reagent. The time resolved fluorescence resonance energy transfer (TR-FRET) is afforded by a Terbium (Tb)-Donor pre-bound to the nanoparticles. FRET occurs when the fluorescent-labeled AMP or GMP product of a PDE reaction binds and comes into close proximity to the Tb-Donor complex. Due to the long lifetime of Tb fluorescence, detection can be run in time-resolved mode to reduce or eliminate interference from auto-fluorescent compounds.\n(§2) The IMAP TR-FRET PDE2A assay was performed in 1536-well white plates. A total of 250 pg per well of FLAG-tagged PDE2A1 (amino acids 2-941) was dispensed in 2.5 μL IMAP assay buffer consisting of 10 mM Tris pH 7.2, 10 mM MgCl2, 1 mM DTT, and 0.1% fatty acid free BSA. 30 nL of compound was then added from 1 mM stocks in DMSO using a Kalypsys Pintool. Plates were incubated for 5 min at room temperature before dispensing 1.5 μL of 533 nM FAM-cAMP substrate for a final concentration of 200 nM. Following a brief centrifugation, plates were incubated for 30 min at room temperature. The assay was terminated by adding 5 μL IMAP binding reagent Tb complex to each well which was prepared according to manufacturer's recommendations (Molecular Devices). Plates were incubated an additional 90 minutes at room temperature and read on a Viewlux plate reader. All compounds were solvated at a concentration of 10 mM in DMSO and tested in 11-point half-log dose-response. Curve fitting and IC50 values were determined using a standard four parameter fit.", "values": [
      {"smiles": "Cc1cc(C2CCOCC2)n2nc(NCc3cnn(-c4ccccc4C)c3)nc2n1", "note": "[Example 36, 5-Methyl-N-{[1-(2-methylphenyl)-1H-pyrazol-4-yl]methyl}-7-(oxan-4-yl)-[1,2,4]triazolo[1,5-a]pyrimidin-2-amine]", "PDE2 (PIC50)": ">7"},
      {"smiles": "Cc1cc(C2CCOCC2)n2nc(NCc3cc(-c4ccccc4)no3)nc2n1", "note": "[Example 37, 5-Methyl-7-(oxan-4-yl)-N-[(3-phenyl-1,2-oxazol-5-yl)methyl]-[1,2,4]triazolo[1,5-a]pyrimidin-2-amine]", "PDE2 (PIC50)": ">7"},
      {"smiles": "COc1ccc(CNc2nc3nc(C)cc(C4CCCOC4)n3n2)cc1", "note": "(stereo not drawn) [Example 38, N-[(4-Methoxyphenyl)methyl]-5-methyl-7-(oxan-3-yl)-[1,2,4]triazolo[1,5-a]pyrimidin-2-amine]", "PDE2 (PIC50)": ">7"},
      {"smiles": "Cc1cc(C2CCOCC2)n2nc(NCc3cccc(Br)c3)nc2n1", "note": "[Example 39, N-[(3-Bromophenyl)methyl]-5-methyl-7-(oxan-4-yl)-[1,2,4]triazolo[1,5-a]pyrimidin-2-amine]", "PDE2 (PIC50)": ">7"},
      {"smiles": "Cc1cc(C2CCOCC2)n2nc(NCc3cccc(Cl)c3)nc2n1", "note": "[Example 40, N-[(3-Chlorophenyl)methyl]-5-methyl-7-(oxan-4-yl)-[1,2,4]triazolo[1,5-a]pyrimidin-2-amine]", "PDE2 (PIC50)": ">7"},
      {"smiles": "Cc1cc(C2CCOCC2)n2nc(NCc3cccc(C(F)(F)F)c3)nc2n1", "note": "[Example 41, 5-Methyl-7-(oxan-4-yl)-N-{[3-(trifluoromethyl)phenyl]methyl}-[1,2,4]triazolo[1,5-a]pyrimidine-2-amine]", "PDE2 (PIC50)": ">7"},
      {"smiles": "Cc1cc(C2CCOCC2)n2nc(NCc3ccc4c(c3)CCO4)nc2n1", "note": "[Example 42, N-(2,3-Dihydro-1-benzofuran-5-ylmethyl)-5-methyl-7-(oxan-4-yl)-[1,2,4]triazolo[1,5-a]pyrimidin-2-amine]", "PDE2 (PIC50)": ">7"},
      {"smiles": "Cc1cc(C2CCOCC2)n2nc(NCc3cn(-c4ccccc4)nc3C)nc2n1", "note": "[Example 46, 5-Methyl-N-[(3-methyl-1-phenyl-1H-pyrazol-4-yl)methyl]-7-(oxan-4-yl)-[1,2,4]triazolo[1,5-a]pyrimidin-2-amine]", "PDE2 (PIC50)": ">7"},
      {"smiles": "COc1cc(F)c(CNc2nc3nc(C)cc(C4CCOCC4)n3n2)c(F)c1", "note": "[Example 50, N-[(2,6-Difluoro-4-methoxyphenyl)methyl]-5-methyl-7-(oxan-4-yl)-[1,2,4]triazolo[1,5-a]pyrimidin-2-amine]", "PDE2 (PIC50)": ">7"},
      {"smiles": "Cc1cc(C2CCOCC2)n2nc(NCc3ccnc(C(F)F)c3)nc2n1", "note": "[Example 52, N-{[2-(Difluoromethyl)pyridin-4-yl]methyl}-5-methyl-7-(oxan-4-yl)-[1,2,4]triazolo[1,5-a]pyrimidin-2-amine]", "PDE2 (PIC50)": ">7"},
      {"smiles": "Cc1cc(CNc2nc3nc(C)cc(C4CCOCC4)n3n2)cc(C)n1", "note": "[Example 53, N-[(2,6-Dimethylpyridin-4-yl)methyl]-5-methyl-7-(oxan-4-yl)-[1,2,4]triazolo[1,5-a]pyrimidin-2-amine]", "PDE2 (PIC50)": ">7"},
      {"smiles": "Cc1cncc(CNc2nc3nc(C)cc(C4CCOCC4)n3n2)c1", "note": "[Example 54, 5-Methyl-N-[(5-methylpyridin-3-yl)methyl]-7-(oxan-4-yl)-[1,2,4]triazolo[1,5-a]pyrimidin-2-amine]", "PDE2 (PIC50)": ">7"},
      {"smiles": "COc1ccc(CNc2nc3nc(C)cc(C4(F)CCOCC4)n3n2)cc1", "note": "[Example 55, 7-(4-Fluorooxan-4-yl)-N-[(4-methoxyphenyl)methyl]-5-methyl-[1,2,4]triazolo[1,5-a]pyrimidin-2-amine]", "PDE2 (PIC50)": ">7"},
      {"smiles": "Cc1cc(C2CCOCC2)n2nc(NCc3ccnc(C(F)(F)F)c3)nc2n1", "note": "[Example 59, 5-Methyl-7-(oxan-4-yl)-N-{[2-(trifluoromethyl)pyridin-4-yl]methyl}-[1,2,4]triazolo[1,5-a]pyrimidin-2-amine]", "PDE2 (PIC50)": ">7"},
      {"smiles": "Cc1cc(C2CCOCC2)n2nc(NCc3ccnc4ccccc34)nc2n1", "note": "[Example 60, 5-Methyl-7-(oxan-4-yl)-N-(quinolin-4-ylmethyl)-[1,2,4]triazolo[1,5-a]pyrimidin-2-amine]", "PDE2 (PIC50)": ">7"},
      {"smiles": "Cc1cc(C2(C)CCOCC2)n2nc(NCc3cn(-c4ccccc4)nc3C)nc2n1", "note": "[Example 61, 5-Methyl-N-[(3-methyl-1-phenyl-1H-pyrazol-4-yl)methyl]-7-(4-methyloxan-4-yl)-[1,2,4]triazolo[1,5-a]pyrimidin-2-amine]", "PDE2 (PIC50)": ">7"},
      {"smiles": "Cc1cc(C2(C)CCOCC2)n2nc(NCc3cnn(-c4ccccc4)c3)nc2n1", "note": "[Example 62, 5-Methyl-7-(4-methyloxan-4-yl)-N-[(1-phenyl-1H-pyrazol-4-yl)methyl]-[1,2,4]triazolo[1,5-a]pyrimidin-2-amine]", "PDE2 (PIC50)": ">7"},
      {"smiles": "Cc1cc(C2CCOCC2)n2nc(NCc3cn(C(C)C)nc3C)nc2n1", "note": "[Example 66, 5-Methyl-N-{[3-methyl-1-(propan-2-yl)-1H-pyrazol-4-yl]methyl}-7-(oxan-4-yl)-[1,2,4]triazolo[1,5-a]pyrimidin-2-amine]", "PDE2 (PIC50)": ">7"}
    ]},
    {"biological_target": "FLAG-tagged PDE2A1 (amino acids 2-941) (Homo sapiens (Human), UniProt O00408)", "test": "IMAP TR-FRET PDE2A enzymatic assay", "assay_type": "biochemical", "settings": "200 nM FAM-cAMP substrate, 11-point half-log dose-response, read-out: PDE2 (PIC50)", "text": "as §1, §2", "units": {"IC50": "nM"}, "values": [
      {"smiles": "Cc1cc(CNc2nc3nc(C)cc(C4CCOCC4)n3n2)ccn1", "note": "[Example 35, 5-Methyl-N-[(2-methylpyridin-4-yl)methyl]-7-(oxan-4-yl)-[1,2,4]triazolo[1,5-a]pyrimidin-2-amine]", "IC50": "100 to 1000"},
      {"smiles": "Cc1cc(CNc2nc3nc(C)cc(C4(C)CCOCC4)n3n2)ccn1", "note": "[Example 43, 5-Methyl-7-(4-methyloxan-4-yl)-N-[(2-methylpyridin-4-yl)methyl]-[1,2,4]triazolo[1,5-a]pyrimidin-2-amine]", "IC50": "100 to 1000"},
      {"smiles": "COc1ccc(CNc2nc3nc(C)cc(C4CCOC4)n3n2)cc1", "note": "(stereo not drawn) [Example 44, N-[(4-Methoxyphenyl)methyl]-5-methyl-7-(oxolan-3-yl)-[1,2,4]triazolo[1,5-a]pyrimidin-2-amine]", "IC50": "100 to 1000"},
      {"smiles": "Cc1cc(C2CCOCC2)n2nc(NCc3ccc4c(c3)OC(F)(F)O4)nc2n1", "note": "[Example 45, N-[(2,2-Difluoro-2H-1,3-benzodioxol-5-yl)methyl]-5-methyl-7-(oxan-4-yl)-[1,2,4]triazolo[1,5-a]pyrimidin-2-amine]", "IC50": "100 to 1000"},
      {"smiles": "Cc1cc(C2CCOCC2)n2nc(NCc3ccccc3C)nc2n1", "note": "[Example 47, 5-Methyl-N-[(2-methylphenyl)methyl]-7-(oxan-4-yl)-[1,2,4]triazolo[1,5-a]pyrimidin-2-amine]", "IC50": "100 to 1000"},
      {"smiles": "Cc1cc(C2CCOCC2)n2nc(NCc3ccccc3Cl)nc2n1", "note": "[Example 48, N-[(2-Chlorophenyl)methyl]-5-methyl-7-(oxan-4-yl)-[1,2,4]triazolo[1,5-a]pyrimidin-2-amine]", "IC50": "100 to 1000"},
      {"smiles": "Cc1cc(C2CCOCC2)n2nc(NCc3cc(F)ccc3F)nc2n1", "note": "[Example 49, N-[(2,5-Difluorophenyl)methyl]-5-methyl-7-(oxan-4-yl)-[1,2,4]triazolo[1,5-a]pyrimidin-2-amine]", "IC50": "100 to 1000"},
      {"smiles": "Cc1cc(C2CCOCC2)n2nc(NCc3c(F)cccc3F)nc2n1", "note": "[Example 51, N-[(2,6-Difluorophenyl)methyl]-5-methyl-7-(oxan-4-yl)-[1,2,4]triazolo[1,5-a]pyrimidin-2-amine]", "IC50": "100 to 1000"},
      {"smiles": "Cc1cc(C2CCOCC2)n2nc(NCc3ccc(F)c(F)c3)nc2n1", "note": "[Example 56, N-[(3,4-Difluorophenyl)methyl]-5-methyl-7-(oxan-4-yl)-[1,2,4]triazolo[1,5-a]pyrimidin-2-amine]", "IC50": "100 to 1000"},
      {"smiles": "Cc1cc(C2CCOCC2)n2nc(NCc3ccc(F)cc3)nc2n1", "note": "[Example 57, N-[(4-Fluorophenyl)methyl]-5-methyl-7-(oxan-4-yl)-[1,2,4]triazolo[1,5-a]pyrimidin-2-amine]", "IC50": "100 to 1000"},
      {"smiles": "Cc1cc(C2CCOCC2)n2nc(NCc3cccc(F)c3)nc2n1", "note": "[Example 58, N-[(3-Fluorophenyl)methyl]-5-methyl-7-(oxan-4-yl)-[1,2,4]triazolo[1,5-a]pyrimidin-2-amine]", "IC50": "100 to 1000"},
      {"smiles": "Cc1cc(C2CC2)n2nc(NCc3cn(-c4ccccc4)nc3C)nc2n1", "note": "[Example 63, 7-Cyclopropyl-5-methyl-N-[(3-methyl-1-phenyl-1H-pyrazol-4-yl)methyl]-[1,2,4]triazolo[1,5-a]pyrimidin-2-amine]", "IC50": "100 to 1000"},
      {"smiles": "COc1ccc([C@@H](C)Nc2nc3nc(C)cc(C4CCOCC4)n3n2)cc1", "note": "[Example 64, N-[(1R)-1-(4-Methoxyphenyl)ethyl]-5-methyl-7-(oxan-4-yl)-[1,2,4]triazolo[1,5-a]pyrimidin-2-amine]", "IC50": "100 to 1000"},
      {"smiles": "Cc1cc(C2CCOCC2)n2nc(NCc3cn(CC(F)F)nc3C)nc2n1", "note": "[Example 65, N-{[1-(2,2-Difluoroethyl)-3-methyl-1H-pyrazol-4-yl]methyl}-5-methyl-7-(oxan-4-yl)-[1,2,4]triazolo[1,5-a]pyrimidin-2-amine]", "IC50": "100 to 1000"},
      {"smiles": "Cc1cc(C2CCOCC2)n2nc(NCc3ccc(F)cc3F)nc2n1", "note": "[Example 68, N-[(2,4-Difluorophenyl)methyl]-5-methyl-7-(oxan-4-yl)-[1,2,4]triazolo[1,5-a]pyrimidin-2-amine]", "IC50": "100 to 1000"}
    ]}
  ]
}
